Experimental data from the supplement of paper PMC6045584.
± gives the standard deviation of the averaged measurements.

Each test system was assayed with O=C(NOCC1CC1)c1ccc(F)c(F)c1Nc1ccc(I)cc1Cl (assay: surviving fraction relative to DMSO-only wells; higher = less growth inhibition). Conditions: 0.5 nM; exposure time: 5 days.
Summary of the method: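 At 250–500 cells per well in 384-well plates, log-phase tumour cell lines were seeded and, 24 hours on, exposed continuously for five days to inhibitors at 0.5, 1, 5, 10, 50, 100, 500 and 1000 nM. Viability readout was CellTiter-Glo luminescence, reported as surviving fraction normalised to the median of DMSO-only wells.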

First: 22RV1 PROSTATE
Second: 93VU HEADNECK
The surviving fraction of the first is higher: 0.93 ± 0.034 for the first, 0.859 ± 0.026 for the second.

143B BONE and A549 LUNG are within error of each other in surviving fraction: 0.887 ± 0.14 for the first, 0.931 ± 0.014 for the second.

First: ASKA SYNOVIAL
Second: BT20 BREAST
The surviving fraction of the first is lower: 0.658 ± 0.015 for the first, 0.994 ± 0.099 for the second.

BT549 BREAST and CADOES1 SOFT TISSUE are within error of each other in surviving fraction: 1.03 ± 0.11 for the first, 0.913 ± 0.11 for the second.

First: CAL51 BREAST
Second: CAL120 BREAST
The surviving fraction of the first is higher: 0.975 ± 0.021 for the first, 0.928 ± 0.018 for the second.

Going from CASKI CERVIX to CHLA90 AUTONOMIC GANGLIA, the surviving fraction falls from 0.931 ± 0.018 to 0.469 ± 0.022.

Compared with CME SYNOVIAL, COLO320DM LARGE INTESTINE is higher in surviving fraction: 0.301 ± 0.075 for the first, 0.544 ± 0.018 for the second.

DU4475 BREAST and H23 LUNG are within error of each other in surviving fraction: 0.859 ± 0.24 for the first, 0.922 ± 0.025 for the second.

With HCC38 BREAST the surviving fraction was 1.14 ± 0.17.

Same assay, conditions: 1 nM; exposure time: 5 days

First: 22RV1 PROSTATE
Second: 93VU HEADNECK
The surviving fraction of the first is higher: 1.03 ± 0.044 for the first, 0.873 ± 0.089 for the second.

Compared with 143B BONE, A549 LUNG is lower in surviving fraction: 0.98 ± 0.0057 for the first, 0.95667 ± 0.00058 for the second.

ASKA SYNOVIAL and BT20 BREAST are within error of each other in surviving fraction: 1.08 ± 0.052 for the first, 1.06 ± 0.055 for the second.

First: BT549 BREAST
Second: CADOES1 SOFT TISSUE
The surviving fraction of the first is higher: 1.07 ± 0.088 for the first, 0.844 ± 0.075 for the second.

Compared with CAL51 BREAST, CAL120 BREAST is lower in surviving fraction: 1 ± 0.032 for the first, 0.9302 ± 0.008 for the second.

Going from CASKI CERVIX to CHLA90 AUTONOMIC GANGLIA, the surviving fraction rises from 0.944 ± 0.038 to 0.987 ± 0.003.

CME SYNOVIAL and COLO320DM LARGE INTESTINE are within error of each other in surviving fraction: 1.11 ± 0.064 for the first, 1.09 ± 0.032 for the second.

DU4475 BREAST and H23 LUNG are within error of each other in surviving fraction: 0.791 ± 0.12 for the first, 0.931 ± 0.027 for the second.

HCC38 BREAST was tested, and the surviving fraction was 1.11 ± 0.19.

Same assay, conditions: 5 nM; exposure time: 5 days

22RV1 PROSTATE and 93VU HEADNECK are within error of each other in surviving fraction: 0.917 ± 0.04 for the first, 0.979 ± 0.061 for the second.

143B BONE and A549 LUNG are within error of each other in surviving fraction: 0.97 ± 0.018 for the first, 0.947 ± 0.017 for the second.

ASKA SYNOVIAL and BT20 BREAST are within error of each other in surviving fraction: 1.08 ± 0.049 for the first, 1.03 ± 0.091 for the second.

BT549 BREAST and CADOES1 SOFT TISSUE are within error of each other in surviving fraction: 1.08 ± 0.23 for the first, 0.894 ± 0.15 for the second.

CAL51 BREAST and CAL120 BREAST are within error of each other in surviving fraction: 0.981 ± 0.055 for the first, 0.966 ± 0.025 for the second.

First: CASKI CERVIX
Second: CHLA90 AUTONOMIC GANGLIA
The surviving fraction of the first is higher: 0.95 ± 0.051 for the first, 0.825 ± 0.05 for the second.

CME SYNOVIAL and COLO320DM LARGE INTESTINE are within error of each other in surviving fraction: 1.04 ± 0.15 for the first, 0.98 ± 0.094 for the second.

DU4475 BREAST and H23 LUNG are within error of each other in surviving fraction: 0.794 ± 0.29 for the first, 0.834 ± 0.0027 for the second.

Test System HCC38 BREAST has a surviving fraction of 1.01 ± 0.11.

Same assay, conditions: 10 nM; exposure time: 5 days

22RV1 PROSTATE and 93VU HEADNECK are within error of each other in surviving fraction: 0.851 ± 0.038 for the first, 0.828 ± 0.051 for the second.

143B BONE and A549 LUNG are within error of each other in surviving fraction: 1 ± 0.037 for the first, 0.956 ± 0.019 for the second.

First: ASKA SYNOVIAL
Second: BT20 BREAST
The surviving fraction of the first is higher: 1.14 ± 0.035 for the first, 0.962 ± 0.13 for the second.

Compared with BT549 BREAST, CADOES1 SOFT TISSUE is lower in surviving fraction: 1.14 ± 0.03 for the first, 0.86 ± 0.081 for the second.

Compared with CAL51 BREAST, CAL120 BREAST is lower in surviving fraction: 0.993 ± 0.017 for the first, 0.908 ± 0.015 for the second.

CASKI CERVIX and CHLA90 AUTONOMIC GANGLIA are within error of each other in surviving fraction: 0.881 ± 0.032 for the first, 0.894 ± 0.036 for the second.

CME SYNOVIAL and COLO320DM LARGE INTESTINE are within error of each other in surviving fraction: 1.27 ± 0.12 for the first, 1.09 ± 0.094 for the second.

DU4475 BREAST and H23 LUNG are within error of each other in surviving fraction: 0.674 ± 0.064 for the first, 0.741 ± 0.062 for the second.

HCC38 BREAST was tested, and the surviving fraction was 1.14 ± 0.093.

Same assay, conditions: 50 nM; exposure time: 5 days

22RV1 PROSTATE and 93VU HEADNECK are within error of each other in surviving fraction: 0.714 ± 0.068 for the first, 0.785 ± 0.074 for the second.

143B BONE and A549 LUNG are within error of each other in surviving fraction: 0.857 ± 0.13 for the first, 0.964 ± 0.027 for the second.

ASKA SYNOVIAL and BT20 BREAST are within error of each other in surviving fraction: 0.847 ± 0.019 for the first, 0.905 ± 0.12 for the second.

Going from BT549 BREAST to CADOES1 SOFT TISSUE, the surviving fraction falls from 1.15 ± 0.062 to 0.903 ± 0.061.

CAL51 BREAST and CAL120 BREAST are within error of each other in surviving fraction: 0.934 ± 0.058 for the first, 0.899 ± 0.036 for the second.

First: CASKI CERVIX
Second: CHLA90 AUTONOMIC GANGLIA
The surviving fraction of the first is higher: 0.766 ± 0.022 for the first, 0.478 ± 0.044 for the second.

Going from CME SYNOVIAL to COLO320DM LARGE INTESTINE, the surviving fraction rises from 0.584 ± 0.07 to 0.747 ± 0.053.

DU4475 BREAST and H23 LUNG are within error of each other in surviving fraction: 0.49 ± 0.15 for the first, 0.484 ± 0.029 for the second.

HCC38 BREAST gave a surviving fraction of 0.998 ± 0.2.

Same assay, conditions: 100 nM; exposure time: 5 days

Going from 22RV1 PROSTATE to 93VU HEADNECK, the surviving fraction rises from 0.6767 ± 0.0032 to 0.751 ± 0.037.

143B BONE and A549 LUNG are within error of each other in surviving fraction: 0.957 ± 0.037 for the first, 1.01 ± 0.02 for the second.

Compared with ASKA SYNOVIAL, BT20 BREAST is lower in surviving fraction: 1.11 ± 0.073 for the first, 0.928 ± 0.055 for the second.

Compared with BT549 BREAST, CADOES1 SOFT TISSUE is lower in surviving fraction: 1.21 ± 0.044 for the first, 0.918 ± 0.1 for the second.

CAL51 BREAST and CAL120 BREAST are within error of each other in surviving fraction: 0.944 ± 0.042 for the first, 0.898 ± 0.015 for the second.

First: CASKI CERVIX
Second: CHLA90 AUTONOMIC GANGLIA
The surviving fraction of the first is lower: 0.685 ± 0.045 for the first, 0.763 ± 0.028 for the second.

CME SYNOVIAL and COLO320DM LARGE INTESTINE are within error of each other in surviving fraction: 1.22 ± 0.17 for the first, 1.15 ± 0.029 for the second.

Compared with DU4475 BREAST, H23 LUNG is higher in surviving fraction: 0.199 ± 0.11 for the first, 0.413 ± 0.01 for the second.

HCC38 BREAST was tested, and the surviving fraction was 1.03 ± 0.22.

Same assay, conditions: 500 nM; exposure time: 5 days

First: 22RV1 PROSTATE
Second: 93VU HEADNECK
The surviving fraction of the first is higher: 0.631 ± 0.037 for the first, 0.417 ± 0.036 for the second.

Going from 143B BONE to A549 LUNG, the surviving fraction rises from 0.841 ± 0.028 to 0.93 ± 0.013.

First: ASKA SYNOVIAL
Second: BT20 BREAST
The surviving fraction of the first is higher: 0.973 ± 0.034 for the first, 0.864 ± 0.061 for the second.

First: BT549 BREAST
Second: CADOES1 SOFT TISSUE
The surviving fraction of the first is higher: 1.3 ± 0.067 for the first, 0.875 ± 0.14 for the second.

First: CAL51 BREAST
Second: CAL120 BREAST
The surviving fraction of the first is higher: 0.878 ± 0.032 for the first, 0.8322 ± 0.0043 for the second.

First: CASKI CERVIX
Second: CHLA90 AUTONOMIC GANGLIA
The surviving fraction of the first is lower: 0.474 ± 0.013 for the first, 0.662 ± 0.044 for the second.

CME SYNOVIAL and COLO320DM LARGE INTESTINE are within error of each other in surviving fraction: 0.993 ± 0.16 for the first, 1.11 ± 0.063 for the second.

Going from DU4475 BREAST to H23 LUNG, the surviving fraction rises from 0.0277 ± 0.0074 to 0.341 ± 0.0071.

In the case of HCC38 BREAST, the surviving fraction is reported as 1.21 ± 0.29.

Same assay, conditions: 1000 nM; exposure time: 5 days

Going from 22RV1 PROSTATE to 93VU HEADNECK, the surviving fraction falls from 0.526 ± 0.019 to 0.311 ± 0.097.

Compared with 143B BONE, A549 LUNG is higher in surviving fraction: 0.542 ± 0.021 for the first, 0.886 ± 0.015 for the second.

ASKA SYNOVIAL and BT20 BREAST are within error of each other in surviving fraction: 0.903 ± 0.029 for the first, 0.849 ± 0.069 for the second.

Going from BT549 BREAST to CADOES1 SOFT TISSUE, the surviving fraction falls from 1.23 ± 0.16 to 0.746 ± 0.14.

Compared with CAL51 BREAST, CAL120 BREAST is lower in surviving fraction: 0.8495 ± 0.0082 for the first, 0.805 ± 0.01 for the second.

Compared with CASKI CERVIX, CHLA90 AUTONOMIC GANGLIA is higher in surviving fraction: 0.454 ± 0.02 for the first, 0.69 ± 0.015 for the second.

CME SYNOVIAL and COLO320DM LARGE INTESTINE are within error of each other in surviving fraction: 1.02 ± 0.27 for the first, 1.15 ± 0.043 for the second.

Compared with DU4475 BREAST, H23 LUNG is higher in surviving fraction: 0.0263 ± 0.0078 for the first, 0.342 ± 0.0067 for the second.

In the case of HCC38 BREAST, the surviving fraction is reported as 1.07 ± 0.14.
